Data from patent US20160053120A1, “AZO DYE USED FOR A COLOR FILTER OF A LCD” (DOW GLOBAL TECHNOLOGIES LLC, priority 2013, published 2016).

Columns and labels:
[1] = Thermal stability of polymer film (ΔEab before and after hard baking at 200° C. for 1 hour); type: physicochemical; conditions: dye in acrylic resin film, baked at 200° C. under air for 1 hour; smaller ΔEab = better heat resistance
Procedure: The obtained dry film was baked at 200° C. under air for 1 hour to evaluate heat resistance. Optical performance measured by the difference between chromaticity coordinates of before and after baking (ΔEab value) was 4.9. A smaller ΔEab value indicates better heat resistance.
The wet films after spin coating are dried in oven at 80° C. for 30 minutes and then soft baked at 150° C. for 15 minutes. The chromaticity coordinates (L, a, b) are recorded with UltraScan Pro (Hunterlab) colorimeter. D65 light source is used and results are based on CIE Lab coordinates. After that the films are hard baked at target temperature (200° C.) for lhour and the new chromaticity coordinates (L′, a′, b′) are recorded with the method above. The thermal stability is indicated by the difference of chromaticity coordinate before and after hard baking represented by the following formula;
ΔE=√{square root over ((L−L′^2+(a−a′)^2+(b−b′)^2)}{square root over ((L−L′^2+(a−a′)^2+(b−b′)^2)}.

[2] = Solubility in cyclohexanone at 25° C.; type: physicochemical

SMILES | Thermal stability at 200° C. (ΔEab) [1] | Solubility in cyclohexanone at 25° C. (wt %) [2] [wt %]
CC1=NN(c2ccccc2)C(=O)C1/N=N/c1ccccc1 (stereo not drawn) [Example 2, C.I. solvent yellow 16] | 43 | 6.4
Cc1ccccc1/N=N/c1ccc(/N=N/c2c(O)ccc3ccccc23)c(C)c1 [Example 3, C.I. solvent red 24] | 15 | 4.3
Oc1ccc2ccccc2c1/N=N/c1ccccc1 [Example 4, C.I. solvent yellow 14] | 64 | 6.4
